# Experimental data from patent US20080171737A1 (Wyeth, priority 2006, published 2008).
# Counter-ions that a name gives are not always drawn.
# Molecular target: T1, human hNET (Homo sapiens, UniProt P23975)
# T1 construct: expressed in transfected cells; host or cells: MDCK-Net6 (MDCK cells stably transfected with hNET)
# Assay: Functional norepinephrine reuptake assay, Procedure B (6,000 cells/well)
# Assay type: cell-based
# Conditions: not given
# Experimental: For screening, 25 μl aliquots of compound solution at a 1 μM or 10 μM final concentration was delivered directly to cells.
# For IC50 determinations, stock compounds were prepared at 10 mM from powder. The stock solution was diluted according to compound testing range. […] On the day of assay, 25 μl of compound solution at the specified concentrations were added to the plates containing cells. A DMSO stock of desipramine was prepared at 10 mM in DMSO and diluted for a final concentration of 20 μM to determine the non-specific reuptake.
# MDCK-Net6 cells, stably transfected with human hNET (Pacholczyk, 1991), were maintained in growth media [high glucose DMEM (Gibco Cat. 11995), 10% FBS (dialyzed, heat-inactivated, Sigma, dialysed, heat inactivated, Lot# K0922 or equivalent) 1xPen/Strep, and 500 μg/ml G418 (Gibco Cat. 10131)]. Cells were plated at 300,000/T75 flask and cells split twice weekly.
# Cells were plated at 50,000 cells/well (Procedure A) or 6,000 cells/well (Procedure B) on day 1 in BD Falcon Microtest 96-well sterile cell culture plates, Optilux White/Clear Bottom TC plate (VWR; # 62406-466 or equivalent) in growth media and maintained in a cell incubator (37° C., 5% CO2). On Day 2, cells were removed from the cell incubator and the growth media is replaced by 200 μl of assay buffer (25 mm HEPES 120 mM NaCL; 5 mM KCl; 2.5 mM CaCl2; 1.2 mM MgSO4; 2 mg/ml glucose (pH 7.4, 37° C.)) containing 0.2 mg/ml ascorbic acid and 1 μM parglyine. For screening, 25 μl of compound in 4% DMSO was added directly to each well and the plate was incubated for 5 minutes (37° C.). […] The reaction is aspirated from the plate and the cells washed with 250 μl of 50 mM Tris Buffer (4° C.). The plates were left to dry for 1 hour. The cells were lysed using 0.25 M NaOH solution then placed on a shake table and vigorously shaken for 10 minutes. After cell lysis, 100 μl of Microscint 20 (PerkinElmer; #87-051101) was added to the plates and the plates were sealed with film tape and replaced on the shake table for a minimum of 10 minutes. The plates were counted in a TopCount counter (PerkinElmer).
# % inhibition=[1−((mean cpm test compound wells−mean cpm non-specific wells)/(mean cpm control wells−mean cpm non-specific wells))]×100
# For IC50 determination, raw cpm values were generated in a data file from the TopCount counter. The data was organized using the Microsoft Excel and transferred into PRIZM graphing and statistical program, which calculated the estimated IC50 value. Calculation of IC50 values was made using non-linear regression analysis with a sigmoidal dose response with variable slope. The statistical program used wells containing ^3H norepinephrine only as the maximal NE reuptake determinant and wells containing ^3H norepinephrine plus 20 μM desipramine (AHR-9543) as the minimal NE reuptake determinant (non-specific determinant). Estimation of the IC50 value was completed on a log scale and the line was fit between the maximal and minimal NE reuptake values.
# T1 sequence (P23975 whole entry): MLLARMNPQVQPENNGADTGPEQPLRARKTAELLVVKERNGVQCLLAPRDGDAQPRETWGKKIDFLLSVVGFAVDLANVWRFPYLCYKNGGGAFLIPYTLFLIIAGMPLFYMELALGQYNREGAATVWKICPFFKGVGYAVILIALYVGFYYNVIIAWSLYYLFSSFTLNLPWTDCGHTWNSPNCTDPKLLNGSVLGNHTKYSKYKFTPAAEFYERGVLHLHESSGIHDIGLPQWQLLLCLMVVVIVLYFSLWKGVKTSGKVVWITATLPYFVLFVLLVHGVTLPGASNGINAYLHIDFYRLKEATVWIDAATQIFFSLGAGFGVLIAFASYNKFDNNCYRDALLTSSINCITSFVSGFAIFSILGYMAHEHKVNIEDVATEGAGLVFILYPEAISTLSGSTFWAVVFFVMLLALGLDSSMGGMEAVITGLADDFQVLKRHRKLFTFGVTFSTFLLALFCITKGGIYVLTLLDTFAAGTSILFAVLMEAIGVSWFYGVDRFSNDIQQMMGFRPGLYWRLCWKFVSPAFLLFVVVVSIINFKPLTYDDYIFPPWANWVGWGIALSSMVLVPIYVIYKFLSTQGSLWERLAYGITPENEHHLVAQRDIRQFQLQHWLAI
row,Compound,IC50
1,"CNCCC[C@H]1Cc2cc(F)ccc2N(c2ccccc2F)S1(=O)=O (single isomer, unassigned) [Example 109]",93 nM
2,"CNCCC[C@@H]1Cc2cc(F)ccc2N(c2ccccc2F)S1(=O)=O (single isomer, unassigned) [Example 110]",11 nM
3,"CNCCC[C@H]1Cc2ccccc2N(c2c(F)cccc2F)S1(=O)=O (single isomer, unassigned) [Example 121]",52 nM
4,"CNCCC[C@@H]1Cc2ccccc2N(c2c(F)cccc2F)S1(=O)=O (single isomer, unassigned) [Example 122]",5 nM
5,"CNCCC[C@H]1Cc2cc(F)ccc2N(c2c(F)cccc2F)S1(=O)=O (single isomer, unassigned) [Example 155]",25 nM
6,"CNCCC[C@@H]1Cc2cc(F)ccc2N(c2c(F)cccc2F)S1(=O)=O (single isomer, unassigned) [Example 156]",27 nM

# Same assay, conditions: MDCK-Net6 cells, 6,000 cells/well, 16 nM 3H-norepinephrine; read-out: Procedure B hNET uptake IC50
row,IC50,Compound
1,96 nM,"CNCCCC1Cc2cc(F)ccc2N(c2ccc(F)cc2C)S1(=O)=O (racemic) [Example 169, 3-[6-fluoro-1-(4-fluoro-2-methylphenyl)-2,2-dioxido-3,4-dihydro-1H-2,1-benzothiazin-3-yl]-N-methylpropan-1-amine]"
2,96 nM,"CNCCC[C@H]1Cc2ccccc2N(c2ccccc2)S1(=O)=O (single isomer, unassigned) [Example 10]"
3,17.9 nM,"CNCCC[C@@H]1Cc2ccccc2N(c2ccccc2)S1(=O)=O (single isomer, unassigned) [Example 11]"
4,38.7 nM,"CNCCC[C@H]1Oc2ccccc2N(c2ccccc2)S1(=O)=O (single isomer, unassigned) [Example 13]"
5,23.9 nM,"CNCCC[C@@H]1Oc2ccccc2N(c2ccccc2)S1(=O)=O (single isomer, unassigned) [Example 14]"
6,69.4 nM,"CNCCC[C@H]1Oc2cc3ccccc3cc2N(c2ccccc2)S1(=O)=O (single isomer, unassigned) [Example 71, Hydrochloride]"
7,115 nM,"CNCCC[C@@H]1Oc2cc3ccccc3cc2N(c2ccccc2)S1(=O)=O (single isomer, unassigned) [Example 72, Hydrochloride]"
8,58.5 nM,"CNCCC[C@H]1Cc2ccccc2N(c2ccccc2F)S1(=O)=O (single isomer, unassigned) [Example 74, Hydrochloride]"
9,3.7 nM,"CNCCC[C@@H]1Cc2ccccc2N(c2ccccc2F)S1(=O)=O (single isomer, unassigned) [Example 75]"
10,59 nM,"CNCCC[C@H]1Cc2ccccc2N(c2ccccc2F)S1(=O)=O (single isomer, unassigned) [Example 90]"
11,4 nM,"CNCCC[C@@H]1Cc2ccccc2N(c2ccccc2F)S1(=O)=O (single isomer, unassigned) [Example 91]"
12,22 nM,"CNCCC[C@@H]1Oc2ccccc2N(c2ccccc2F)S1(=O)=O (single isomer, unassigned) [Example 94]"
13,77 nM,"CNC[C@@H](O)C[C@H]1Oc2ccccc2N(c2ccccc2)S1(=O)=O (single isomer, unassigned) [Example 98]"
14,343 nM,"CNCCC[C@H]1Cc2ccccc2N(c2ccc(F)cc2F)S1(=O)=O (single isomer, unassigned) [Example 100]"
15,49 nM,"CNCCC[C@@H]1Cc2ccccc2N(c2ccc(F)cc2F)S1(=O)=O (single isomer, unassigned) [Example 101]"
16,1270 nM,"NCC[C@H]1Oc2ccccc2N(c2ccccc2)S1(=O)=O (single isomer, unassigned) [Example 102]"
17,3320 nM,"NCC[C@@H]1Oc2ccccc2N(c2ccccc2)S1(=O)=O (single isomer, unassigned) [Example 103]"
18,302 nM,"CNCC[C@H]1Oc2ccccc2N(c2ccccc2)S1(=O)=O (single isomer, unassigned) [Example 104]"
19,1220 nM,"CNCC[C@@H]1Oc2ccccc2N(c2ccccc2)S1(=O)=O (single isomer, unassigned) [Example 105]"
20,97 nM,"CNCCC[C@H]1Oc2cc(F)ccc2N(c2ccccc2)S1(=O)=O (single isomer, unassigned) [Example 106]"
21,74 nM,"CNCCC[C@@H]1Oc2cc(F)ccc2N(c2ccccc2)S1(=O)=O (single isomer, unassigned) [Example 107]"
22,100 nM,"CNCCC[C@H]1Cc2cc(F)ccc2N(c2ccc(F)cc2F)S1(=O)=O (single isomer, unassigned) [Example 112]"
23,34 nM,"CNCCC[C@@H]1Cc2cc(F)ccc2N(c2ccc(F)cc2F)S1(=O)=O (single isomer, unassigned) [Example 113]"

row,IC50,Compound
1,101 nM,"CNCC[C@H](O)[C@@H]1Cc2ccccc2N(c2ccccc2)S1(=O)=O (single isomer, unassigned) [Example 114]"
2,546 nM,"CNCC[C@@H](O)[C@@H]1Cc2ccccc2N(c2ccccc2)S1(=O)=O (single isomer, unassigned) [Example 115]"
3,85 nM,"CNCC[C@@H](O)[C@H]1Cc2ccccc2N(c2ccccc2)S1(=O)=O (single isomer, unassigned) [Example 116]"
4,79 nM,"CNCC[C@H](O)[C@H]1Cc2ccccc2N(c2ccccc2)S1(=O)=O (single isomer, unassigned) [Example 117]"
5,143 nM,"CNCC[C@H]1Oc2cc(F)ccc2N(c2ccccc2)S1(=O)=O (single isomer, unassigned) [Example 118]"
6,494 nM,"CNCC[C@@H]1Oc2cc(F)ccc2N(c2ccccc2)S1(=O)=O (single isomer, unassigned) [Example 119]"
7,1710 nM,"CNCCC[C@H]1Cc2ccccc2N(c2cccnc2)S1(=O)=O (single isomer, unassigned) [Example 124]"
8,238 nM,"CNCCC[C@@H]1Cc2ccccc2N(c2cccnc2)S1(=O)=O (single isomer, unassigned) [Example 125]"
9,1540 nM,"CNCCC[C@H]1Cc2ccccc2N(c2ccccn2)S1(=O)=O (single isomer, unassigned) [Example 127]"
10,89 nM,"CNCCC[C@@H]1Cc2ccccc2N(c2ccccn2)S1(=O)=O (single isomer, unassigned) [Example 128]"
11,45 nM,"CNCCC[C@@H]1Oc2cc(F)ccc2N(c2ccccc2F)S1(=O)=O (single isomer, unassigned) [Example 130, Hydrochloride]"
12,31 nM,"CNCCC[C@H]1Oc2cc(F)ccc2N(c2ccccc2F)S1(=O)=O (single isomer, unassigned) [Example 131, Hydrochloride]"
13,66 nM,"CNCCC[C@H]1Cc2cc(F)ccc2N(c2cccc(F)c2F)S1(=O)=O (single isomer, unassigned) [Example 146]"
14,34 nM,"CNCCC[C@@H]1Cc2cc(F)ccc2N(c2cccc(F)c2F)S1(=O)=O (single isomer, unassigned) [Example 147]"
15,74 nM,"CNCCC[C@H]1Cc2cc(F)ccc2N(c2ccc(C)cc2F)S1(=O)=O (single isomer, unassigned) [Example 149]"
16,16 nM,"CNCCC[C@@H]1Cc2cc(F)ccc2N(c2ccc(C)cc2F)S1(=O)=O (single isomer, unassigned) [Example 150]"
17,40 nM,"CNCCC[C@H]1Cc2cc(F)ccc2N(c2cc(F)ccc2F)S1(=O)=O (single isomer, unassigned) [Example 152]"
18,43 nM,"CNCCC[C@@H]1Cc2cc(F)ccc2N(c2cc(F)ccc2F)S1(=O)=O (single isomer, unassigned) [Example 153]"
19,145 nM,"CNCCC[C@H]1Cc2cc(F)ccc2N(c2ccccc2Cl)S1(=O)=O (single isomer, unassigned) [Example 158]"
20,133 nM,"CNCCC[C@@H]1Cc2cc(F)ccc2N(c2ccccc2Cl)S1(=O)=O (single isomer, unassigned) [Example 159]"
21,143 nM,"CNCCC[C@H]1Cc2cc(F)ccc2N(c2ccccc2C)S1(=O)=O (single isomer, unassigned) [Example 161]"
22,135 nM,"CNCCC[C@@H]1Cc2cc(F)ccc2N(c2ccccc2C)S1(=O)=O (single isomer, unassigned) [Example 162]"
